Measured values published in patent US4885239A, “Rapid differentiation of bacteria using polyether antibiotics” (Eastman Kodak Company, priority 1986, dated 1989).

Assays:
E. coli = experiment: dye formation from RIND VII in presence of calimycin, E. coli; format: cell-based, Escherichia coli (ATCC 25922); design: key: 0: no dye formation; +/-: faint dye formation; 1+: light dye formation; 2+: moderate dye formation; 3+: strong dye formation; 4+: very strong dye formation; conditions: calimycin 10^-3 molar, calcium chloride
Protocol: (§1) gram-negative bacteria Enterobacter cloacae (ATCC 23355), Escherichia coli (ATCC 25922), Proteus vulgaris (ATCC 13315), Klebsiella pneumoniae (ATCC 13883) and Pseudomonas aeruginosa (ATCC 27853), and gram-positive bacteria Staphylococcus aureus (ATCC 25923) and Streptococcus pyogenes (ATCC 19615), and brain heart infusion (BHI) broth from Difco Laboratories (Detroit, Mich.),
(§2) Bacterial suspensions were prepared by growing the cells in BHI to stationary phase overnight at 37° C. P. aeruginosa was grown with agitation. […]
(§3) TERGITOL 7 anionic surfactant was used to differentiate viable bacteria according to the prior art method. […] The amount of dye formed was then determined visually and graded as follows: 0 indicates no dye formation, +/- indicates faint dye formation, 1+ indicates light dye formation, 2+ indicates moderate dye formation, 3+ indicates strong dye formation, and 4+ indicates very strong dye formation.
(§4) Calimycin, a polyether antibiotic, was similarly used with RIND VII in the differentiation of bacteria. Assays were performed as described above, except that 25 μl of 1 molar calcium chloride solution was added to each test solution and the P. aeruginosa response was measured in the presence of 10% yeast extract as the carbon source instead of glucose. […]

P. vulgaris = experiment: dye formation from RIND VII in presence of calimycin, P. vulgaris; format: cell-based, Proteus vulgaris (ATCC 13315); design: key: 0: no dye formation; +/-: faint dye formation; 1+: light dye formation; 2+: moderate dye formation; 3+: strong dye formation; 4+: very strong dye formation; conditions: calimycin 10^-3 molar, calcium chloride
Protocol: as §1, §2, §3, §4

P. aeruginosa = experiment: dye formation from RIND VII in presence of calimycin, P. aeruginosa; format: cell-based, Pseudomonas aeruginosa (ATCC 27853); design: key: 0: no dye formation; +/-: faint dye formation; 1+: light dye formation; 2+: moderate dye formation; 3+: strong dye formation; 4+: very strong dye formation; conditions: calimycin 10^-3 molar, calcium chloride, 10% yeast extract instead of glucose
Protocol: as §1, §2, §3, §4

S. aureus = experiment: dye formation from RIND VII in presence of calimycin, S. aureus; format: cell-based, Staphylococcus aureus (ATCC 25923); design: key: 0: no dye formation; +/-: faint dye formation; 1+: light dye formation; 2+: moderate dye formation; 3+: strong dye formation; 4+: very strong dye formation; conditions: calimycin 10^-3 molar, calcium chloride
Protocol: as §1, §2, §3, §4

S. faecalis = experiment: dye formation from RIND VII in presence of calimycin, S. faecalis; format: cell-based, Streptococcus faecalis (clinical urine isolate); design: key: 0: no dye formation; +/-: faint dye formation; 1+: light dye formation; 2+: moderate dye formation; 3+: strong dye formation; 4+: very strong dye formation; conditions: calimycin 10^-3 molar, calcium chloride
Protocol: Streptococcus faecalis was isolated from a clinical urine specimen obtained from a local hospital,
(§5) Bacterial suspensions were prepared by growing the cells in BHI to stationary phase overnight at 37° C. P. aeruginosa was grown with agitation. About 40 ml of overnight cultures were centrifuged, decanted and washed once with 0.05 molar potassium phosphate buffer or 0.05 molar N-2-hydroxyethylpiperazine-N'-2-ethanesulfonic acid (HEPES) buffer, pH 7.8, and resuspended in buffer.
A dispersion containing a RIND compound was prepared by dissolving RIND VII from Table II above in N,N-dimethylformamide (DMF) at 16 mg compound per ml of solvent. […]
as §3, §4

S. pyogenes = experiment: dye formation from RIND VII in presence of calimycin, S. pyogenes; format: cell-based, Streptococcus pyogenes (ATCC 19615); design: key: 0: no dye formation; +/-: faint dye formation; 1+: light dye formation; 2+: moderate dye formation; 3+: strong dye formation; 4+: very strong dye formation; conditions: calimycin 10^-3 molar, calcium chloride
Protocol: as §1, §2, §3, §4

E. coli (gram -) = experiment: change in relative fluorescence with water-compatible RIND XXXV (Example 4), E. coli; format: cell-based, Escherichia coli (ATCC 25922); conditions: 37° C., without antibiotic 2539
Protocol: as §1, §5
A dispersion containing a RIND compound was prepared by dissolving RIND VII from Table II above in N,N-dimethylformamide (DMF) at 16 mg compound per ml of solvent. An aliquot (250 μl) of the resulting solution was added to 500 μl of TRITON X-100 surfactant. This mixture was then added dropwise with stirring to 25 ml of 0.05 molar HEPES buffer. A solution containing a water-compatible RIND compound XXXV was prepared by dissolving the compound (16 mg/ml) in N,N-dimethylformamide which had been acidified with a 0.1% sulfuric acid solution.
A solution was prepared from the following components: 100 μl RIND XXXV solution (16 mg/ml acidified N,N-dimethylformamide), 200 μl glucose solution (10% in water), 200 μl trimethyl-1,4-benzoquinone ETA solution (1.5 mg/ml methanol) and 10 ml HEPES buffer.
Test solutions were prepared from the following reagents: 50 μl HEPES buffer, 50 μl polyether antibiotic A23187 (free acid, 0.01 molar in methanol), 10 μl calcium chloride solution (1 molar) (serial dilutions of buffer and antibiotic were performed to obtain various antibiotic concentrations), 50 μl of the appropriate cell suspensions (E. coli, about 10^8 cells/ml and S. aureus, about 10^8 cells/ml) and 200 μl of the RIND solution. Control solutions were prepared as described in Examples 2 and 3.
Relative fluorescence was measured using a standard spectrophotometer modified to read at excitation of 540 nm and emission of 620 nm. The change (Δ) in relative fluorescence was determined after 30 minutes at 37° C. for several concentration levels of antibiotic.

With CNc1ccc2oc(C[C@H]3O[C@@]4(CC[C@H]3C)O[C@H]([C@H](C)C(=O)c3ccc[nH]3)[C@H](C)C[C@H]4C)nc2c1C(=O)O [calimycin, Calimycin] the dye formation (E. coli; 15 Minutes) was 3+, the dye formation (E. coli; 30 Minutes) was 4+ and the dye formation (P. vulgaris; 15 Minutes) was 4+. For the same compound, the dye formation (P. vulgaris; 30 Minutes) was 4+, the dye formation (P. aeruginosa; 15 Minutes) was 2+ and the dye formation (P. aeruginosa; 30 Minutes) was 4+. The dye formation (S. aureus; 15 Minutes) was 0, the dye formation (S. aureus; 30 Minutes) was 0 and the dye formation (S. faecalis; 15 Minutes) was “+/-”. For the same compound, the dye formation (S. faecalis; 30 Minutes) was “+/-”, the dye formation (S. pyogenes; 15 Minutes) was 0 and the dye formation (S. pyogenes; 30 Minutes) was 0. The “Δ Relative Fluorescence after 30 Min.” value (E. coli (gram -); antibiotic 1 × 10^-4 molar) was 2804, the “Δ Relative Fluorescence after 30 Min.” value (E. coli (gram -); antibiotic 2 × 10^-4 molar) was 2540 and the “Δ Relative Fluorescence after 30 Min.” value (E. coli (gram -); antibiotic 4 × 10^-4 molar) was 2338. The “Δ Relative Fluorescence after 30 Min.” value (E. coli (gram -); antibiotic 8 × 10^-4 molar) was 2411.
